Test results as given in patent US8580816B2, “Carboxylic acid derivatives having an oxazolo[5,4-b]pyridine ring” (Sanofi, priority 2011, dated 2013).

Each molecule was assayed against T1, human Edg 1 receptor (Homo sapiens, UniProt P21453) (assay: GTP-γ-S assay using human Edg 1 receptors (scintillation proximity assay, CHO Flp-In membrane preparation)). Details: test compound at 10 μM; relative to high control 10 μM S1P = 100% activation; membranes of CHO Flp-In cells overexpressing human Edg 1; triplicate.
T1 construct: FLAG (N); expressed in transfected cells
T1 sequence (P21453 whole entry): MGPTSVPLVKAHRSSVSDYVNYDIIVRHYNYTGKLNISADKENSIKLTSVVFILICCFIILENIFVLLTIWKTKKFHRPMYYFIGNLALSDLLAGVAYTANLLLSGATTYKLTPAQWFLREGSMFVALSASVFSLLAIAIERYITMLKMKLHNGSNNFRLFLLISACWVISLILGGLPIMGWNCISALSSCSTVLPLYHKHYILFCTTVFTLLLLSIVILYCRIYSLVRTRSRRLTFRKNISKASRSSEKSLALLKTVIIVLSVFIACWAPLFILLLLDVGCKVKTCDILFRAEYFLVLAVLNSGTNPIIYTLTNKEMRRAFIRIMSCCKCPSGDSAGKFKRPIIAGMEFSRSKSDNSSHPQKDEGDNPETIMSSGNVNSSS
Type: biochemical
Text: A) GTP-γ-S Assay Using Human Edg 1 Receptors
In order to determine the Edg 1 receptor activation by the compounds of the invention, a GTP-γ-S ((GTP-γ-S=guanosine 5′-[thio]triphosphate) assay for G-protein coupled receptor binding based on the scintillation proximity assay principle was used, employing a cell membrane preparation from a CHO Flp-In cell line which constitutively overexpresses the human Edg 1 receptor.
A membrane preparation was obtained by standard methods from the afore-described CHO Flp-In cell line constitutively overexpressing the human Edg 1 receptor. Briefly, the cryopreserved cells were taken in culture and grown until confluency in T175 cell culture flasks (Becton Dickinson, cat. no. 35 5001). Cell culture was stopped by washing with calcium-free phosphate-buffered saline (PBS; Gibco, cat. no. 14190), and cells were harvested with a rubber-policeman in 4° C. cold and calcium-free PBS supplemented with a protease inhibitor cocktail (complete protease inhibitor; Roche, cat. no. 1697498; 1 tablet per 50 ml) and subsequently centrifuged at 4° C. for 15 min at 1100×g (Heraeus Minifuge T). For cell lysis, the pellet was resuspended in a 4° C. cold hypotonic buffer consisting of 5 mM HEPES (Sigma-Aldrich, cat. no. H-0981), 1 mM EDTA (disodium salt; Merck, cat. No. 8418) supplemented with protease inhibitor cocktail (as above) in which cells were stored for another 15 min on ice. After lysis, cells were centrifuged at 4° C. for 10 min at 400×g (Heraeus Minifuge T). The pellet was disrupted in a Dounce homogenizer, diluted with the supernatant of the previous centrifugation and subsequently centrifuged at 4° C. for 10 min at 500×g (Heraeus Minifuge T) in order to separate nuclei and still intact cells from the membranes mainly present in the supernatant. The supernatant was then diluted in hypotonic buffer and centrifuged (Beckmann, Avanti J251) at approximately 18 600×g for 2 h at 4° C. After centrifugation, the membrane pellet was resuspended in a storing buffer consisting of 20 mM HEPES; 150 mM NaCl (Merck, cat. no. 6400), 1 mM EDTA (as above) supplemented with protease inhibitor cocktail (as above). […] Protein concentration of the membrane preparation was determined in a sample by means of a commercial protein assay (Bio-Rad, DC Protein Assay, cat. nos. 500-0113, 500-0114, 500-0115).
The Edg 1 membrane preparation obtained in (b) was employed in a commercially available scintillation proximity assay (SPA) kit for G-protein coupled receptor binding from Amersham Biosciences/GE Healthcare (code RPNQ0210), in which ligand-induced binding of ^35S-radiolabeled GTP-γ-S to the receptor-containing membrane, which is bound to scintillation beads, stimulates the emission of light and allows to quantify the in vitro activity of the Edg 1 agonistic compound. […]

Edg 1 receptor activation in percent of the activation by 10 μM S1P (% activation) [%]	Structure (SMILES)
74	Cc1cc(-c2nc3ccc(Oc4ccccc4F)nc3o2)cc(C)c1OCC(=O)O [Example 1, {4-[5-(2-Fluorophenoxy)oxazolo[5,4-b]pyridin-2-yl]-2,6-dimethylphenoxy}acetic acid]
51	Cc1cc(-c2nc3ccc(Oc4ccccc4F)nc3o2)cc(C)c1OC(C)C(=O)O (stereo not shown) [Example 2, 2-{4-[5-(2-Fluorophenoxy)oxazolo[5,4-b]pyridin-2-yl]-2,6-dimethylphenoxy}propionic acid]
39	Cc1cc(-c2nc3ccc(Oc4ccccc4F)nc3o2)cc(C)c1OC(C)(C)C(=O)O [Example 3, 2-{4-[5-(2-Fluorophenoxy)oxazolo[5,4-b]pyridin-2-yl]-2,6-dimethylphenoxy}-2-methylpropionic acid]
86	Cc1cc(-c2nc3ccc(Oc4ccccc4F)nc3o2)cc(C)c1OCC(C)(C)C(=O)O [Example 4, 3-{4-[5-(2-Fluorophenoxy)oxazolo[5,4-b]pyridin-2-yl]-2,6-dimethylphenoxy}-2,2-dimethylpropionic acid]
